Measurements reported in patent US8957093B2, “N-biphenylmethylindole modulators of PPARG” (The Scripps Research Institute, priority 2011, dated 2015).
Like-named read-outs stand apart in the source and are kept apart here.

Legend:
GST-PPARG-LBD = GST-PPARG-LBD (Homo sapiens (Human), UniProt P37231); assay: Lanthascreen PPARG competitive binding assay (Invitrogen, TR-FRET); conditions: NA = not active, inc = incomplete curve, read-out: IC50 (nM) Lantha
Summary of the method: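 TR-FRET competitive binding of GST-PPARG-LBD with 5 nM Tb-GST-antibody and 5 nM Fluormone Pan-PPAR Green tracer, in TR-FRET buffer C. Compound serially diluted from 10 μM, 2 h dark incubation, in triplicate. Readout is 520/490 nm emission ratio (340 nm excitation), expressed as fold change over 2% DMSO control.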

[1] = molecular target: Gal-4-PPAR (human PPAR LBD fused to GAL4 DNA-binding domain) (Homo sapiens (Human), UniProt P37231); assay: GAL4-PPARG LBD / UAS-luciferase transactivation assay in HEK 293T cells; format: cell-based
Gal-4-PPAR (human PPAR LBD fused to GAL4 DNA-binding domain), sequence (P37231 238-503): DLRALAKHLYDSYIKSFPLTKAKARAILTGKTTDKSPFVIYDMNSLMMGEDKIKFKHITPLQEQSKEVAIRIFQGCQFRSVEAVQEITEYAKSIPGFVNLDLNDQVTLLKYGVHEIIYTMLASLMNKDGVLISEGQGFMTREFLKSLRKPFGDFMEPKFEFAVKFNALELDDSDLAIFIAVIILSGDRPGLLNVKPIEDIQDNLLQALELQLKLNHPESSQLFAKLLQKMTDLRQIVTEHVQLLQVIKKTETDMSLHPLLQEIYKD

[2] = Lanthascreen competitive binding
[3] = GAL4 transactivation, HEK 293T cells; NA = not active; read-out: EC50 (nM) GAL4
[4] = HEK-293T, 18 h; read-out: % transactivation at 10 μM (GAL4)
[5] = Lanthascreen PPARG competitive binding
[6] = GAL4 transactivation; read-out: EC50 (nM) GAL4
[7] = HEK-293T, 18 h, read-out: % transactivation at 10 μM (GAL4)

GST-PPARG-LBD, sequence (P37231 238-503): as above

activation at 10 µM [1, 7] [%] | SMILES | IC50 (GST-PPARG-LBD; [2]) [nM] | EC50 [1, 3] [nM] | activation at 10 µM [1, 4] [%] | IC50 (GST-PPARG-LBD; [5]) [nM] | EC50 [1, 6] [nM] | EC50 [1] [nM]
 | CC[C@H](NC(=O)c1ccc2c(ccn2Cc2ccccc2-c2cccc(C(=O)O)c2)c1)c1ccccc1 [Example 191, (S)-2′-((5-((1-phenylpropyl)carbamoyl)-1H-indol-1-yl)methyl)-[1,1′-biphenyl]-3-carboxylic acid] | 80 | 1000 | 20 |  |  | 
 | Cc1c(C)n(Cc2ccc(-c3ccccc3C(=O)O)cc2)c2ccc(C(=O)N[C@@H](C)c3c(F)cccc3C(F)(F)F)cc12 [Example 300, (S)-4′-((5-((1-(2-Fluoro-6-(trifluoromethyl)phenyl)ethyl)carbamoyl)-2,3-dimethyl-1H-indol-1-yl)methyl)-[1,1′-biphenyl]-2-carboxylic acid] |  |  | 15 | 9 | 167 | 
10 | Cc1c(C)n(Cc2ccc(-c3ccccc3C(=O)O)cc2)c2ccc(C(=O)N[C@H](C)c3cccc(C(F)(F)F)c3Cl)cc12 [Example 231, (R)-4′-((5-((1-(2-chloro-3-(trifluoromethyl)phenyl)ethyl)carbamoyl)-2,3-dimethyl-1H-indol-1-yl)methyl)-[1,1′-biphenyl]-2-carboxylic acid] | 2 | 131 |  |  |  | 
 | COc1ccc(F)cc1[C@H](C)NC(=O)c1ccc2c(c1)c(C)c(C)n2Cc1ccc(-c2ccccc2C(=O)O)cc1 [Example 206, (S)-4′-((5-((1-(5-fluoro-2-methoxyphenyl)ethyl)carbamoyl)-2,3-dimethyl-1H-indol-1-yl)methyl)-[1,1′-biphenyl]-2-carboxylic acid] | 26 | 405 | 20 |  |  | 
 | Cc1c(C)n(Cc2ccc(-c3ccccc3C(=O)O)cc2)c2ccc(C(=O)NC(C)c3cncc(C4CC4)c3)cc12 (stereo not drawn) [Example 259, 4′-((5-(1-(5-cyclopropylpyridin-3-yl)ethylcarbamoyl)-2,3-dimethyl-1H-indol-1-yl)methyl)biphenyl-2-carboxylic acid] | 19 | 1480 | 15 |  |  | 
 | Cc1c(C)n(Cc2ccc(-c3ccccc3C(=O)O)cc2)c2ccc(C(=O)N[C@@H](C)c3cccc(Br)n3)cc12 [Example 273, (S)-4′-((5-(1-(6-bromopyridin-2-yl)ethylcarbamoyl)-2,3-dimethyl-1H-indol-1-yl)methyl)biphenyl-2-carboxylic acid] |  |  | 30 | 15 | 294 | 
 | Cc1c(C)n(Cc2ccc(-c3ccccc3C(=O)O)cc2)c2ccc(C(=O)N[C@@H](C)c3cc(C4CC4)ccn3)cc12 [Example 266, (S)-4′-((5-((1-(4-cyclopropylpyridin-2-yl)ethyl)carbamoyl)-2,3-dimethyl-1H-indol-1-yl)methyl)-[1,1′-biphenyl]-2-carboxylic acid] | 8 | 588 | 25 |  |  | 
50 | Cc1c(C)n(Cc2ccc(-c3ccccc3C(=O)O)cc2)c2ccc(C(=O)N[C@@H](C)c3cccc(F)c3Cl)cc12 [Example 170, (S)-4′-((5-((1-(2-chloro-3-fluorophenyl)ethyl)carbamoyl)-2,3-dimethyl-1H-indol-1-yl)methyl)-[1,1′-biphenyl]-2-carboxylic acid] | 4 | 114 |  |  |  | 
 | Cc1c(C)n(Cc2ccc(-c3ccccc3C(=O)O)cc2)c2ccc(C(=O)N[C@@H](C)c3ccccc3C(F)(F)F)cc12 [Example 208, (S)-4′-((2,3-dimethyl-5-((1-(2-(trifluoromethyl)phenyl)ethyl)carbamoyl)-1H-indol-1-yl)methyl)-[1,1′-biphenyl]-2-carboxylic acid] | 22 | 369 | 20 |  |  | 
 | Cc1c(C)n(Cc2ccc(-c3ccccc3C(=O)O)cc2)c2ccc(C(=O)N[C@H](C)c3cccc(Br)n3)cc12 [Example 271, (R)-4′-((5-(1-(6-bromopyridin-2-yl)ethylcarbamoyl)-2,3-dimethyl-1H-indol-1-yl)methyl)biphenyl-2-carboxylic acid] | 2 | 52 | 20 |  |  | 
 | Cc1ccc(F)c([C@H](C)NC(=O)c2ccc3c(c2)c(C)c(C)n3Cc2ccc(-c3ccccc3C(=O)O)cc2)c1 [Example 211, (S)-4′-((5-((1-(2-fluoro-5-methylphenyl)ethyl)carbamoyl)-2,3-dimethyl-1H-indol-1-yl)methyl)-[1,1′-biphenyl]-2-carboxylic acid] | 6 | 251 | 20 |  |  | 
 | Cc1c(C)n(Cc2ccc(-c3ccccc3C(=O)O)cc2)c2ccc(C(=O)N[C@H](C)C3COc4ccccc4O3)cc12 (stereo partly drawn) [Example 213, 4′-((5-(((1R)-1-(2,3-dihydrobenzo[b][1,4]dioxin-2-yl)ethyl)carbamoyl)-2,3-dimethyl-1H-indol-1-yl)methyl)-[1,1′-biphenyl]-2-carboxylic acid] | 3 | 672 | 40 |  |  | 
 | Cc1c(C)n(Cc2ccc(-c3ccccc3C(=O)O)cc2)c2ccc(C(=O)N[C@@H](C)[C@@H]3CCCN3C(=O)OCc3ccccc3)cc12 [Example 237, 4′-((5-(((S)-1-((S)-1-((benzyloxy)carbonyl)pyrrolidin-2-yl)ethyl)carbamoyl)-2,3-dimethyl-1H-indol-1-yl)methyl)-[1,1′-biphenyl]-2-carboxylic acid] | 118 | 417 | 30 |  |  | 
 | Cc1c(C)n(Cc2ccc(-c3ccccc3C(=O)O)cc2)c2ccc(C(=O)N[C@@H](C)c3c(F)cncc3F)cc12 [Example 216, (S)-4′-((5-((1-(3,5-difluoropyridin-4-yl)ethyl)carbamoyl)-2,3-dimethyl-1H-indol-1-yl)methyl)-[1,1′-biphenyl]-2-carboxylic acid] | 33 | 884 | 30 |  |  | 
35 | Cc1c(C)n(Cc2ccc(-c3ccccc3C(=O)O)cc2)c2ccc(C(=O)N[C@@H](C)c3ccccc3F)cc12 [Example 160, (S)-4′-((5-((1-(2-fluorophenyl)ethyl)carbamoyl)-2,3-dimethyl-1H-indol-1-yl)methyl)-[1,1′-biphenyl]-2-carboxylic acid] | 7 | 383 |  |  |  | 
 | COc1cccc([C@@H](C)NC(=O)c2ccc3c(c2)c(C)c(C)n3Cc2ccc(-c3ccccc3C(=O)O)cc2)c1 [Example 161, (R)-4′-((5-((1-(3-methoxyphenyl)ethyl)carbamoyl)-2,3-dimethyl-1H-indol-1-yl)methyl)-[1,1′-biphenyl]-2-carboxylic acid] | 2 | 55 | 30 |  |  | 
 | Cc1c(C)n(Cc2ccc(-c3ccccc3C(=O)O)cc2)c2ccc(C(=O)N[C@H](C)c3ccnc(C4CC4)c3)cc12 [Example 270, (R)-4′-((5-(1-(2-cyclopropylpyridin-4-yl)ethylcarbamoyl)-2,3-dimethyl-1H-indol-1-yl)methyl)biphenyl-2-carboxylic acid] | 15 | 686 | 40 |  |  | 
 | Cc1c(C)n(Cc2ccc(-c3ccccc3C(=O)O)cc2)c2ccc(C(=O)N[C@@H](C)c3ccc(Br)cn3)cc12 [Example 260, (S)-4′-((5-((1-(5-bromopyridin-2-yl)ethyl)carbamoyl)-2,3-dimethyl-1H-indol-1-yl)methyl)-[1,1′-biphenyl]-2-carboxylic acid] | 2 | 42 | 25 |  |  | 
 | Cc1c(C)n(Cc2ccc(-c3ccccc3-c3nnn[nH]3)cc2)c2ccc(C(=O)N[C@@H](C)c3cccc(C4CC4)c3)cc12 [Example 188, (S)-1-((2′-(1H-tetrazol-5-yl)-[1,1′-biphenyl]-4-yl)methyl)-N-(1-(3-cyclopropylphenyl)ethyl)-2,3-dimethyl-1H-indole-5-carboxamide] | 10 | 3150 | 20 |  |  | 
 | Cc1c(C)n(Cc2ccc(-c3ccccc3C(=O)O)cc2)c2ccc(C(=O)N[C@@H](C)c3ccc(C4CC4)nc3)cc12 [Example 263, (S)-4′-((5-((1-(6-cyclopropylpyridin-3-yl)ethyl)carbamoyl)-2,3-dimethyl-1H-indol-1-yl)methyl)-[1,1′-biphenyl]-2-carboxylic acid] | 59 | 3760 | 20 |  |  | 
 | Cc1c(C)n(Cc2ccc(-c3ccccc3C(=O)O)cc2)c2ccc(C(=O)N[C@H](C)c3ccccc3C(F)(F)F)cc12 [Example 207, (R)-4′-((2,3-dimethyl-5-((1-(2-(trifluoromethyl)phenyl)ethyl)carbamoyl)-1H-indol-1-yl)methyl)-[1,1′-biphenyl]-2-carboxylic acid] | 1 | 629 | 20 |  |  | 
 | Cc1c(C)n(Cc2ccc(-c3ccccc3-c3n[nH]c(=O)o3)cc2)c2ccc(C(=O)N[C@@H](C)c3cccc(C(C)C)c3)cc12 [Example 245, (S)—N-(1-(3-isopropylphenyl)ethyl)-2,3-dimethyl-1-((2′-(5-oxo-4,5-dihydro-1,3,4-oxadiazol-2-yl)-[1,1′-biphenyl]-4-yl)methyl)-1H-indole-5-carboxamide] | 7 |  | 10 |  |  | 454
 | Cc1c(C)n(Cc2ccc(-c3ccccc3C(=O)O)cc2)c2ccc(C(=O)N[C@@H](C)c3ccc(Cl)nc3)cc12 [Example 262, (S)-4′-((5-((1-(6-chloropyridin-3-yl)ethyl)carbamoyl)-2,3-dimethyl-1H-indol-1-yl)methyl)-[1,1′-biphenyl]-2-carboxylic acid] | 144 | 4000 | 35 |  |  | 
